Results taken from patent publication US12577257B2, “Heterocyclic compounds” (Hoffmann-La Roche Inc., priority 2018, dated 2026).
pIC50: −log10 of the molar value.

The molecules below were run against T1, MAGL (Homo sapiens, UniProt Q99685) (assay: MAGL inhibition, Table 1 values with no assay marker (2-AG or 4-NPA assay not stated)). Details: not given.
T1 sequence (Q99685 1-303): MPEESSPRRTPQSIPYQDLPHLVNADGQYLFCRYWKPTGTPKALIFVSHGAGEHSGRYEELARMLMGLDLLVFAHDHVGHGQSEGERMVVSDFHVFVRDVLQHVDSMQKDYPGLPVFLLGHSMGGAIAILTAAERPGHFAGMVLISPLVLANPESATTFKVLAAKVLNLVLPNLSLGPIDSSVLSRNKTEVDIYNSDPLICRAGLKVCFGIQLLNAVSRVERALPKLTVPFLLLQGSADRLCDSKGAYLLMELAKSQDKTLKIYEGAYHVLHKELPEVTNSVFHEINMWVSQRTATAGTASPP
Type: biochemical
Method: Compounds were profiled for MAGL inhibitory activity by measuring the enzymatic activity of MAGL by following the hydrolysis of 4-nitrophenylacetate resulting in 4-nitrophenol, which absorbs at 405-412 nm (G. G. Muccioli, G. Labar, D. M. Lambert, Chem. Bio. Chem. 2008, 9, 2704-2710). This assay is hereinafter abbreviated “4-NPA assay”.
The 4-NPA assay was carried out in 384 well assay plates (black with clear bottom, non-binding surface treated, Corning Ref. 3655) in a total volume of 40 μL. Compound dilutions were made in 100% DMSO (VWR Chemicals 23500.297) in a polypropylene plate in 3-fold dilution steps to give a final concentration range in the assay from 25 μM to 1.7 nM. 1 μL compound dilutions (100% DMSO) were added to 19 μL MAGL (recombinant wild-type) in assay buffer (50 mM TRIS (GIBCO, 15567-027), 1 mM EDTA (Fluka, 03690-100 ml)). The plate was shaked for 1 min at 2000 rpm (Variomag Teleshake) and then incubated for 15 min at RT. To start the reaction, 20 μL 4-Nitrophenylacetate (Sigma N-8130) in assay buffer with 6% EtOH was added. The final concentrations in the assay were 1 nM MAGL and 300 μM 4-Nitrophenylacetate. After shaking (1 min, 2000 rpm) and 5 min incubation at RT, the absorbance at 405 nm was measured for a first time (Molecular Devices, SpectraMax Paradigm). A second measurement was then done after incubation for 80 min at RT. From the two measurements, the slope was calculated by subtracting the first from the second measurement.
(§1) Alternatively, compounds were profiled for MAGL inhibitory activity by determining the enzymatic activity by following the hydrolysis of the natural substrate 2-arachidonoylglycerol resulting in arachidonic acid, which can be followed by mass spectrometry. This assay is hereinafter abbreviated “2-AG assay”.
(§2) The 2-AG assay was carried out in 384 well assay plates (PP, Greiner Cat #784201) in a total volume of 20 μL. Compound dilutions were made in 100% DMSO (VWR Chemicals 23500.297) in a polypropylene plate in 3-fold dilution steps to give a final concentration range in the assay from 12.5 μM to […]. 0.25 μL compound dilutions (100% DMSO) were added to 9 μL MAGL in assay buffer (50 mM TRIS (GIBCO, 15567-027), 1 mM EDTA (Fluka, 03690-100 ml), 0.01% (v/v) Tween. After shaking, the plate was incubated for 15 min at RT. To start the reaction, 10 μL 2-arachidonoylglycerol in assay buffer was added. The final concentrations in the assay was […] and 8 μM 2-arachidonoylglycerol. After shaking and 30 min incubation at RT, the reaction was quenched by the addition of 40 μL of acetonitrile containing 4 μM of d8-arachidonic acid. The amount of arachidonic acid was traced by an online SPE system (Agilent Rapidfire) coupled to a triple quadrupole mass spectrometer (Agilent 6460). A C18 SPE cartridge (G9205A) was used in an acetonitrile/water liquid setup. The mass spectrometer was operated in negative electrospray mode following the mass transitions 303.1→259.1 for arachidonic acid and 311.1→267.0 for d8-arachidonic acid. The activity of the compounds was calculated based on the ratio of intensities [arachidonic acid/d8-arachidonic acid].

Row | Structure (SMILES) | pIC50
1 | O=C1CO[C@H]2CCN(C(=O)N3CC4(CC(S(=O)(=O)c5ccc(F)cc5Cl)C4)C3)C[C@H]2N1 [Example 67, (4aR,8aS)-6-(6-((2-chloro-4-fluorophenyl)sulfonyl)-2-azaspiro[3.3]heptane-2-carbonyl)hexahydro-2H-pyrido[4,3-b][1,4]oxazin-3(4H)-one] | 7.17
2 | COc1ccc(N2CC3(CCN(C(=O)N4CC[C@@H]5OCC(=O)N[C@@H]5C4)C3)C2)cc1C [Example 62, (4aR,8aS)-6-(2-(4-methoxy-3-methylphenyl)-2,6-diazaspiro[3.4]octane-6-carbonyl)hexahydro-2H-pyrido[4,3-b][1,4]oxazin-3(4H)-one] | 7.23

Continued, values first:

Row | pIC50 | Structure (SMILES)
3 | 5.98 | O=C1CO[C@H]2CCN(C(=O)N3CC4(C3)CN(c3ccc(C(F)(F)F)cc3)C4)C[C@H]2N1 [Example 55, (4aR,8aS)-6-(6-(4-(trifluoromethyl)phenyl)-2,6-diazaspiro[3.3]heptane-2-carbonyl)hexahydro-2H-pyrido[4,3-b][1,4]oxazin-3(4H)-one]
4 | 10.00 | COc1cccc(F)c1CC1CC2(C1)CN(C(=O)N1CC[C@@H]3OCC(=O)N[C@@H]3C1)C2 [Example 71, (4aR,8aS)-6-(6-(2-fluoro-6-methoxybenzyl)-2-azaspiro[3.3]heptane-2-carbonyl)hexahydro-2H-pyrido[4,3-b][1,4]oxazin-3(4H)-one]
5 | 10.52 | O=C1CO[C@H]2CCN(C(=O)N3CC4(CC(Cc5ccc(C(F)(F)F)cc5F)C4)C3)C[C@H]2N1 [Example 49, (4aR,8aS)-6-(6-(2-fluoro-4-(trifluoromethyl)benzyl)-2-azaspiro[3.3]heptane-2-carbonyl)hexahydro-2H-pyrido[4,3-b][1,4]oxazin-3(4H)-one]

These molecules were tested against T1, MAGL (assay: 2-AG assay: MAGL hydrolysis of 2-arachidonoylglycerol to arachidonic acid, followed by mass spectrometry). Details: footnote [a]: measured in 2-AG assay.
Type: biochemical
Method: as §1, §2

Row | Structure (SMILES) | pIC50
6 | O=C1CO[C@H]2CCN(C(=O)N3CCC4(CC3)CC(NS(=O)(=O)c3ccc(C(F)(F)F)cc3)CO4)C[C@H]2N1 (stereo in doubt) [Example 29, N-((S)-8-((4aR,8aS)-3-Oxooctahydro-2H-pyrido[4,3-b][1,4]oxazine-6-carbonyl)-1-oxa-8-azaspiro[4.5]decan-3-yl)-4-(trifluoromethyl)benzenesulfonamide] | 7.32
7 | O=C1CO[C@H]2CCN(C(=O)N3CCC4(CC3)CC(Oc3ccc(F)cc3Cl)C4)C[C@H]2N1 [Example 42, (4aR,8aS)-6-[2-(2-Chloro-4-fluoro-phenoxy)-7-azaspiro[3.5]nonane-7-carbonyl]-4,4a,5,7,8,8a-hexahydropyrido[4,3-b][1,4]oxazin-3-one] | 8.68
8 | O=C1CO[C@H]2CCN(C(=O)N3CCC4(CC3)CC(NS(=O)(=O)c3cccc(C(F)(F)F)c3)CO4)C[C@H]2N1 (stereo in doubt) [Example 32, N-((S)-8-((4aR,8aS)-3-Oxooctahydro-2H-pyrido[4,3-b][1,4]oxazine-6-carbonyl)-1-oxa-8-azaspiro[4.5]decan-3-yl)-3-(trifluoromethyl)benzenesulfonamide] | 6.91
9 | O=C1CO[C@H]2CCN(C(=O)N3CCC4(CC3)CN(S(=O)(=O)c3ccc(C(F)(F)F)cc3)C4)C[C@H]2N1 [Example 37, (4aR,8aS)-6-(2-((4-(Trifluoromethyl)phenyl)sulfonyl)-2,7-diazaspiro[3.5]nonane-7-carbonyl)hexahydro-2H-pyrido[4,3-b][1,4]oxazin-3(4H)-one] | 6.41
10 | O=C1CO[C@H]2CCN(C(=O)N3CCC4(CC3)CC(NCc3ccc(F)cc3Cl)CO4)C[C@H]2N1 (mixture of isomers) [Example 38, rac-(4aR,8aS)-6-(3-((2-Chloro-4-fluorobenzyl)amino)-1-oxa-8-azaspiro[4.5]decane-8-carbonyl)hexahydro-2H-pyrido[4,3-b][1,4]oxazin-3(4H)-one] | 6.38
11 | CN(Cc1ccc(F)cc1Cl)C1COC2(CCN(C(=O)N3CC[C@@H]4OCC(=O)N[C@@H]4C3)CC2)C1 (single isomer, unassigned) [Example 33] | 6.89
12 | CN([C@H]1COC2(CCN(C(=O)N3CC[C@@H]4OCC(=O)N[C@@H]4C3)CC2)C1)S(=O)(=O)c1ccccc1 [Example 30, N-Methyl-N-((R)-8-((4aR,8aS)-3-oxooctahydro-2H-pyrido[4,3-b][1,4]oxazine-6-carbonyl)-1-oxa-8-azaspiro[4.5]decan-3-yl)benzenesulfonamide] | 7.31
13 | O=C1CO[C@H]2CCN(C(=O)N3CCC4(CC3)CN(S(=O)(=O)c3ccc(F)cc3Cl)C4)C[C@H]2N1 [Example 27, (4aR,8aS)-6-(2-((2-Chloro-4-fluorophenyl)sulfonyl)-2,7-diazaspiro[3.5]nonane-7-carbonyl)hexahydro-2H-pyrido[4,3-b][1,4]oxazin-3(4H)-one] | 7.48

Continued, values first:

Row | pIC50 | Structure (SMILES)
14 | 8.64 | O=C1CO[C@H]2CCN(C(=O)N3CC4(CC(Oc5ccc(C(F)(F)F)cc5F)C4)C3)C[C@H]2N1 [Example 3, (4aR,8aS)-6-(6-(2-Fluoro-4-(trifluoromethyl)phenoxy)-2-azaspiro[3.3]heptane-2-carbonyl)hexahydro-2H-pyrido[4,3-b][1,4]oxazin-3(4H)-one]
15 | 5.69 | O=C1CO[C@H]2CCN(C(=O)N3CCC4(CN(Cc5ccc(C(F)(F)F)cc5F)C4)C3)C[C@H]2N1 [Example 15, (4aR,8aS)-6-(2-(2-Fluoro-4-(trifluoromethyl)benzyl)-2,6-diazaspiro[3.4]octane-6-carbonyl)hexahydro-2H-pyrido[4,3-b][1,4]oxazin-3(4H)-one]
16 | 7.90 | O=C1CO[C@H]2CCN(C(=O)N3CC4(CC(Oc5cc(F)cc(C(F)(F)F)c5)C4)C3)C[C@H]2N1 [Example 9, (4aR,8aS)-6-(6-(3-Fluoro-5-(trifluoromethyl)phenoxy)-2-azaspiro[3.3]heptane-2-carbonyl)hexahydro-2H-pyrido[4,3-b][1,4]oxazin-3(4H)-one]
17 | 7.54 | O=C1CO[C@H]2CCN(C(=O)N3CC4(CC(Oc5ccc(C(F)(F)F)cn5)C4)C3)C[C@H]2N1 [Example 25, (4aR,8aS)-6-(6-((5-(Trifluoromethyl)pyridin-2-yl)oxy)-2-azaspiro[3.3]heptane-2-carbonyl)hexahydro-2H-pyrido[4,3-b][1,4]oxazin-3(4H)-one]
18 | 8.42 | O=C1CO[C@H]2CCN(C(=O)N3CC4(CC(Oc5cc(C(F)(F)F)c(C(F)(F)F)cn5)C4)C3)C[C@H]2N1 [Example 22, (4aR,8aS)-6-(6-((4,5-Bis(trifluoromethyl)pyridin-2-yl)oxy)-2-azaspiro[3.3]heptane-2-carbonyl)hexahydro-2H-pyrido[4,3-b][1,4]oxazin-3(4H)-one]
19 | 9.10 | O=C1CO[C@H]2CCN(C(=O)N3CCC4(CC3)CC(Oc3ccc(C(F)(F)F)cc3F)C4)C[C@H]2N1 [Example 10, (4aR,8aS)-6-(2-(2-Fluoro-4-(trifluoromethyl)phenoxy)-7-azaspiro[3.5]nonane-7-carbonyl)hexahydro-2H-pyrido[4,3-b][1,4]oxazin-3(4)-one]
20 | 7.12 | O=C1CO[C@H]2CCN(C(=O)N3CCC4(CC3)CN(Cc3ccc(C(F)(F)F)cc3F)C4)C[C@H]2N1 [Example 13, (4aR,8aS)-6-(2-(2-Fluoro-4-(trifluoromethyl)benzyl)-2,7-diazaspiro[3.5]nonane-7-carbonyl)hexahydro-2H-pyrido[4,3-b][1,4]oxazin-3(4H)-one]
21 | 7.97 | O=C1CO[C@H]2CCN(C(=O)N3CC4(CC(Oc5ccc(F)cc5F)C4)C3)C[C@H]2N1 [Example 8, (4aR,8aS)-6-(6-(2,4-Difluorophenoxy)-2-azaspiro[3.3]heptane-2-carbonyl)hexahydro-2H-pyrido[4,3-b][1,4]oxazin-3(4H)-one]
